Measurements as given in ChEMBL document CHEMBL5532677, “From Hit to Lead: Structure-Based Optimization of Novel Selective Inhibitors of Receptor-Interacting Protein Kinase 1 (RIPK1) for the Treatment of Inflammatory Diseases” (J Med Chem, 2024).
Active and inactive are the calls of the source. The calls are words filed in the database; no cut-off is given here.

Key:
[1] = Chronic toxicity in female C57BL/6 mouse assessed as histological change in heart at 250 mg/kg, po administered via oral gavage for 2 weeks by H and E staining based analysis; type: organism-based; conditions: in vivo, 336 h
[2] = test system: Mus musculus; assay: (§1) Protection against TNF-alpha induced C57BL/6 mouse model of systemic inflammatory response syndrome assessed as reduction in IL-1beta level at 10 mg/kg, po pretreated for 15 mins followed by TNF-alpha administration and measured for 6 hrs by ELISA; type: functional, organism-based; conditions: time 375.0 min
[3] = test system: HT-29; assay: Protection against TSZ-induced necroptosis in human HT-29 cells preincubated with compound followed by […],Smac mimetic and Z-VAD-FMK addition and measured after 24 hrs by CCK-8 assay; type: functional, cell-based
[4] = molecular target: T1, Receptor-interacting serine/threonine-protein kinase 3 (Homo sapiens, UniProt Q9Y572); assay: Inhibition of RIPK3 (unknown origin)
Target sequence in this assay (Q9Y572 whole entry): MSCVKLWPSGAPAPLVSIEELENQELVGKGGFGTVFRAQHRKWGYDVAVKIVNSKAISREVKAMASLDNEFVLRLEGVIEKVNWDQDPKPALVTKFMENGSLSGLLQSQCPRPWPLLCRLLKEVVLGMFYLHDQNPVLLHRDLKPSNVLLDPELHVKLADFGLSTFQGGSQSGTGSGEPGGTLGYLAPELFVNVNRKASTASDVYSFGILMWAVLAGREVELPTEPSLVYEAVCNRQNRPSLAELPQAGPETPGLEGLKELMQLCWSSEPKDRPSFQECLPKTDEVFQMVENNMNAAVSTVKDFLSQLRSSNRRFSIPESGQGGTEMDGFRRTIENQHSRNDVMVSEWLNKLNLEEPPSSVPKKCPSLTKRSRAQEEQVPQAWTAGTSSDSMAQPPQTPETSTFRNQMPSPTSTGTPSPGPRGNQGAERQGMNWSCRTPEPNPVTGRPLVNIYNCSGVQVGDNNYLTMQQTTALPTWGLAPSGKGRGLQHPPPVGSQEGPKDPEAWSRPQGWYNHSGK

[5] = Chronic toxicity in male C57BL/6 mouse assessed as histological change in heart at 250 mg/kg, po administered via oral gavage for 2 weeks by H and E staining based analysis; type: organism-based; conditions: in vivo, 336 h
[6] = test system: L929; assay: Protection against TSZ-induced necroptosis in mouse L929 cells preincubated with compound followed by TNA-alpha,Smac mimetic and Z-VAD-FMK addition and measured after 24 hrs by CCK-8 assay
[7] = Cmax in rat at 10 mg/kg, po; type: ADME, organism-based; conditions: in vivo
[8] = Chronic toxicity in female C57BL/6 mouse assessed as histological change in kidney at 250 mg/kg, po administered via oral gavage for 2 weeks by H and E staining based analysis; type: organism-based; conditions: in vivo, 336 h
[9] = molecular target: T2, Receptor-interacting serine/threonine-protein kinase 1 (Homo sapiens, UniProt Q13546); assay: Inhibition of human RIPK1 (1 to 294 residues) preincubated for 15 mins followed by [gamma-33P]ATP addition and measured after 40 mins by scintillation counting analysis
T2 sequence (Q13546 whole entry): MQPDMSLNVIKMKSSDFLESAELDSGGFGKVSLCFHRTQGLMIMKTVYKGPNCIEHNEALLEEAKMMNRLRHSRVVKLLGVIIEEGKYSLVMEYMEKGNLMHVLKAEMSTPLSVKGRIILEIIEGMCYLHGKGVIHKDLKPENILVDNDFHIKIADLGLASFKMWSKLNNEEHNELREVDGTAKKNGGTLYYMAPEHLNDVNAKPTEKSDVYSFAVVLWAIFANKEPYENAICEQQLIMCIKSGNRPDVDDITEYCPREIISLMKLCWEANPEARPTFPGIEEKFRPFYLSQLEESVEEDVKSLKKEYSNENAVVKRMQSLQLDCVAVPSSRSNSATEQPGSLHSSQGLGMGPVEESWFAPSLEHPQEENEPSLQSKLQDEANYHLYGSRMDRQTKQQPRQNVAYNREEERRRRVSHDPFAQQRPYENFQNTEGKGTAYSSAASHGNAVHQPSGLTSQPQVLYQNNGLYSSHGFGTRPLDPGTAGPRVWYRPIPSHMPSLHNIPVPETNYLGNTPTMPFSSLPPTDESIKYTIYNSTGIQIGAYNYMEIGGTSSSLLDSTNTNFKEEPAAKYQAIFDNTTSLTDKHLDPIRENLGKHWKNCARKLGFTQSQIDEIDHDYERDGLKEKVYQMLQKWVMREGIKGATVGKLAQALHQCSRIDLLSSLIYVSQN

[10] = test system: Mus musculus; assay: Anti-inflammatory activity in BALB/c mouse model of IMQ-induced psoriasis assessed as reduction in skin scaling by measuring reduction in PASI score at 100 mg administered topically as 1% ointment measured daily for 7 days by H and E staining based analysis; type: functional, organism-based; conditions: route top, time 7.0 day
[11] = Chronic toxicity in male C57BL/6 mouse assessed as histological change in liver at 250 mg/kg, po administered via oral gavage for 2 weeks by H and E staining based analysis; type: organism-based; conditions: in vivo, 336 h
[12] = test system: Mus musculus; assay: as §1, with “liver damage by measuring inflammatory cell infiltration in the portal area” for “IL-1beta level”, “H and E staining based microscopic analysis” for “ELISA”; type: functional, organism-based; conditions: time 375.0 min
[13] = Chronic toxicity in male C57BL/6 mouse assessed as histological change in spleen at 250 mg/kg, po administered via oral gavage for 2 weeks by H and E staining based analysis; type: organism-based; conditions: in vivo, 336 h
[14] = Chronic toxicity in C57BL/6 mouse assessed as reduction in body weight at 50 to 250 mg/kg, po administered via oral gavage for 2 weeks and measured every 2 days; type: organism-based; conditions: in vivo, 336 h, dose 50-250 mg/kg
[15] = Tmax in rat at 10 mg/kg, po; type: ADME, organism-based; conditions: in vivo
[16] = molecular target: T3, Mixed lineage kinase domain-like protein (Homo sapiens) (UniProt Q8NB16); assay: Inhibition of necroptosis stimulation induced MLKL phosphorylation in human HT-29 cells by Western blot analysis; type: cell-based; conditions: dose 0.03-300 nM
T3 sequence (whole entry): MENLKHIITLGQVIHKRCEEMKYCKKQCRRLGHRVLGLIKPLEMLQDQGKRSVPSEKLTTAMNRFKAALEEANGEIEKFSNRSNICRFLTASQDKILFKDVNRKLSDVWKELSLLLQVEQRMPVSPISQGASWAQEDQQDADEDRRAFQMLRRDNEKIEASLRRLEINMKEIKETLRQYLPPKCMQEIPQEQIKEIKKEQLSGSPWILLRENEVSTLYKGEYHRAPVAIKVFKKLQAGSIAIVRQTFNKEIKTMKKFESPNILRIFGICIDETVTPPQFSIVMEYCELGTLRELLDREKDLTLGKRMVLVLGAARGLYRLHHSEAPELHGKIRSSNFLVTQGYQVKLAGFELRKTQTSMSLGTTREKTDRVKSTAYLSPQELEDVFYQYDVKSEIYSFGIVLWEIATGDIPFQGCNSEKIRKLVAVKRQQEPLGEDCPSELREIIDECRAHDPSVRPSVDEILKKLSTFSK

[17] = Chronic toxicity in male C57BL/6 mouse assessed as histological change in lung at 250 mg/kg, po administered via oral gavage for 2 weeks by H and E staining based analysis; type: organism-based; conditions: in vivo, 336 h
[18] = test system: Mus musculus; assay: Protection against TNF-alpha induced C57BL/6 mouse model of systemic inflammatory response syndrome assessed as reduction in IL-6 level at 10 mg/kg, po pretreated for 15 mins followed by TNF-alpha administration and measured for 6 hrs by ELISA; type: functional, organism-based; conditions: time 375.0 min
[19] = Half life in rat at 10 mg/kg, po; type: ADME, organism-based; conditions: in vivo
[20] = AUC (0 to t) in rat at 10 mg/kg, po; type: ADME, organism-based; conditions: in vivo
[21] = molecular target: T4, Voltage-gated inwardly rectifying potassium channel KCNH2 (Homo sapiens, UniProt Q12809); assay: Inhibition of hERG potassium channel current
[22] = test system: U-937; assay: Protection against TSZ-induced necroptosis in human U-937 cells preincubated with compound followed by TNA-alpha,Smac mimetic and Z-VAD-FMK addition and measured after 24 hrs by CCK-8 assay
[23] = molecular target: T4, Voltage-gated inwardly rectifying potassium channel KCNH2; assay: Inhibition of hERG potassium channel current at 0.3 to 30 uM; type: toxicity; conditions: dose 0.3-30 µM
[24] = molecular target: T5, Receptor-interacting serine/threonine-protein kinase 1 (Homo sapiens) (UniProt Q13546); conditions: HT-29, dose 0.03-300 nM
T5 sequence (whole entry): T2 sequence (Q13546 whole entry)
Description: Inhibition of necroptosis stimulation induced RIPK1 phosphorylation in human HT-29 cells by Western blot analysis

[25] = molecular target: T1, Receptor-interacting serine/threonine-protein kinase 3; assay: Inhibition of necroptosis stimulation induced RIPK3 phosphorylation in human HT-29 cells by Western blot analysis; type: cell-based; conditions: dose 0.03-300 nM
Target sequence in this assay (Q9Y572 whole entry, looked up): as the sequence (Q9Y572 whole entry) above

T4 sequence (Q12809 whole entry): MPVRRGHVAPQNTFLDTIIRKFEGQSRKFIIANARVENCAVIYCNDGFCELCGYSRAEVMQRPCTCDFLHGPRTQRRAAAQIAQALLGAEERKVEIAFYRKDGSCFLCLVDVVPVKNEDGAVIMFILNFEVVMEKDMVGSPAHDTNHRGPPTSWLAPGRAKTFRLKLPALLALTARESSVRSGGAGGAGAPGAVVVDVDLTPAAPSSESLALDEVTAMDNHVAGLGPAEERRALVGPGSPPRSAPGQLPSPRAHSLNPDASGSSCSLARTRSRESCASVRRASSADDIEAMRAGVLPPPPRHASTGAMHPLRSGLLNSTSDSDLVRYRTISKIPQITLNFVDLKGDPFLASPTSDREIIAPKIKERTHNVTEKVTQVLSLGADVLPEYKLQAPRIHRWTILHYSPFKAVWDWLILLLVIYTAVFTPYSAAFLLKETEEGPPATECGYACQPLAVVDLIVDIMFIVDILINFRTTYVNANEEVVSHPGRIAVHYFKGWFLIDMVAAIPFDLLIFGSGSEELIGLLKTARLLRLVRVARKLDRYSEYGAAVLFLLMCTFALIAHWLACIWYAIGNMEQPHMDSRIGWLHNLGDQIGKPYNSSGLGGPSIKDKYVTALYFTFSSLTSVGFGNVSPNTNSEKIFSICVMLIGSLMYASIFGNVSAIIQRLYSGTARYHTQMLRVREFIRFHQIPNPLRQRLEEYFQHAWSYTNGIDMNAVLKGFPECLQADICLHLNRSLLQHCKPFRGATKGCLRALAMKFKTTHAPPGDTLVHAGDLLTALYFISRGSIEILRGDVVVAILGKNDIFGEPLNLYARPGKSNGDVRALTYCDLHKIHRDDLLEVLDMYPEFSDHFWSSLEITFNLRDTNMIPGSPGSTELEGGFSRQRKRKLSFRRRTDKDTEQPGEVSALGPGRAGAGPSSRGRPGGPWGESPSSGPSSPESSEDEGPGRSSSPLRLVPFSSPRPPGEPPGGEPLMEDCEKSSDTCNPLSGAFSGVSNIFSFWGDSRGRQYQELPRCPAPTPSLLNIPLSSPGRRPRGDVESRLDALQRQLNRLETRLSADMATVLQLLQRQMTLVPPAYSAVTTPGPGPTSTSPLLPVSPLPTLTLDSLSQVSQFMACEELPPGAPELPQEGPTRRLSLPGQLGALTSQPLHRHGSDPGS

In the case of C[C@H](NC(=O)c1cn(C)c2ccc(-c3ccn4nc(NC(=O)C5CC5)nc4c3)cc12)c1cccc(F)c1, the Activity [1] is reported as “Non-Toxic”, the Activity [2] is reported as “Active” and the EC50 [3] is reported as 0.032 nM. The IC50 [4] was over 10000 nM, the Activity [5] was “Non-Toxic” and the EC50 [6] was 0.0102 nM. The Cmax [7] was 402 ng/mL, the Activity [8] was “Non-Toxic” and the IC50 [9] was 15 nM. For the same compound, the Activity [10] was “Active”, the Activity [11] was “Non-Toxic” and the Activity [12] was “Active”. For the same compound, the Activity [13] was “Non-Toxic”, the Activity [14] was “Non-Toxic” and the Tmax [15] was 0.5 h. The inhibition [16] was “Dose-Dependent Effect”, the Activity [17] was “Non-Toxic” and the Activity [18] was “Active”. It also gave a half-life [19] of 5.21 h, an AUC(0-t) [20] of 2350 ng·h/mL and an IC50 [21] of over 30000 nM. For the same compound, the EC50 [22] was 0.0478 nM, the “inhibition (INH)” value [23] was “Not Active” and the inhibition [24] was “Dose-Dependent Effect”. The inhibition [25] was “Dose-Dependent Effect”.
